Data as given in patent publication US20060074105A1, “Substituted quinoline and quinazoline inhibitors of quinone reductase 2” (Serenex, Inc., priority 2004, published 2006).
pIC50: −log10 of the molar value. Values joined by “and” are separate entries in the source; they are usually repeats but may differ in a detail not shown here. Equal entries are not always repeated. Where two headings read alike, the source gives them in different places.

Experiments:
recombinant QR2 = molecular target: T1, recombinant QR2 (Homo sapiens, UniProt P16083); assay: Inhibition of QR2 activity in vitro (absorbance at 365 nm, NmeH/menadione); format: biochemical
T1 sequence (P16083 1-231): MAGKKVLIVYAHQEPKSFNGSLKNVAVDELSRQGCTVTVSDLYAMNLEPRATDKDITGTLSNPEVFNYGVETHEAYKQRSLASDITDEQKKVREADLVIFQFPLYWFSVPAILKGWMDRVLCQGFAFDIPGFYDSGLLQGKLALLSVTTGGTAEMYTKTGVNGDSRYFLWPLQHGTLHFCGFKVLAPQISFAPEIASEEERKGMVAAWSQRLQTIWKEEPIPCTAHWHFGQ
Procedure: Inhibition of QR2 activity by the compounds of the invention was assayed in triplicate with recombinant QR2 (at 96 ng/ml) by measuring the absorbance at 365 nm in a buffer containing 50 Mm Tris-HCl, Ph 8.5, 50 μM NmeH, 20 μM menadione, and 0.1% Triton X-100 as described in Graves et al. (2002) Mol. Pharmacol. 62: 1364-72.

[1] = test system: Plasmodium chabaudi AS line; assay: Four day test for blood schizontocidal activity, P. chabaudi AS in mice; format: in vivo; set-up: ED90: unit not given beside the values; settings: for ED50: Plasmodium chabaudi
Procedure: (§1) MEFA which was developed from NS by the 2% relapse technique (Peters, W., Chemotherapy and Drug Resistance in Malaria, 2nd Ed., London, Academic Press, ISBN 0-12-552721-7).
(§2) Blood schizontocidal activity was assessed by the “four day test” essentially as described by Peters, W. and Robinson, B. L. (1999), “Malaria” in Handbook of Animal Models of Infection, Academic Press. The compound was dissolved in dimethyl sulfoxide with the aid of ultrasonification and aqueous dilutions were prepared for use.
(§3) Random-bred Swiss albino mice free of Mycoplasma (Eperythrozoon) coccoides and weighing between 18 and 22 g. were infected via the tail vein on day 0 (D0) and then treated once daily either subcutaneously or orally by gavage for four consecutive days (D0 through D+3). Thin blood films were made from tail blood from groups of untreated controls and from treated animals on D+4.

P. yoelii ssp. NS = assay: Four day test for blood schizontocidal activity, chloroquine-resistant P. yoelii ssp. NS in mice; format: in vivo, Plasmodium yoelii; set-up: ED90: unit not given beside the values; settings: for ED50: Plasmodium yoelii
Procedure: as §1, §2, §3

P. yoelii ssp. MEFA = assay: Four day test for blood schizontocidal activity, mefloquine-resistant P. yoelii ssp. MEFA in mice; format: in vivo, Plasmodium yoelii; set-up: ED90: unit not given beside the values; settings: for ED50: Plasmodium yoelii
Procedure: as §1, §2, §3

[2] = Signs of toxicity in mice treated in the four day test; format: in vivo
Excerpt: as §3

[3] = average of the determinations, read-out: IC50 Average
[4] = individual determinations, assay range given, read-out: IC50
[5] = set 1, average, read-out: IC50 Average
[6] = set 2, average, read-out: IC50 Average
[7] = set 2, individual determinations, read-out: IC50
[8] = P. yoelii ssp. MEFA, sc, once daily D0 to D+3, mice

pIC50 (recombinant QR2; [3]) | pIC50 (recombinant QR2; [4]) | SMILES | further results
5.42 | 5.48 and 5.33 | Clc1ccc2c(NCCc3ccccn3)ccnc2c1 [Compound 2-4] | 
5.57 | 5.57 and 5.62 and 5.54 | Oc1ccc(CCNc2ccnc3cc(Cl)ccc23)cc1 [Compound 2-5] | 
 |  | Clc1ccc2c(NCc3ccccn3)ccnc2c1 [Compound 2-17] | pIC50 (recombinant QR2; [5]): 6.22; pIC50 (recombinant QR2; set 1, individual determinations, read-out: IC50): 6.39 and 6.17 and 6.14; pIC50 (recombinant QR2; [6]): 6.26; pIC50 (recombinant QR2; [7]): 6.22 and 6.30
5.49 | 5.39 and 5.66 and 5.47 | Clc1ccc2c(NC3=NC4C=CC=CC4N3)ccnc2c1 (stereo not drawn) [Compound 2-29] | 
4.13 | 4.08 and 4.14 and 4.18 | Clc1ccc2c(SCc3ccccn3)ccnc2c1 [Compound 2-33] | 
4.10 | 4.09 and 4.10 and 4.11 | Clc1ccc2c(OCc3ccccn3)ccnc2c1 [Compound 2-34] | 
4.01 | 3.96 and 4.06 | CC(O)CNCCNc1cc(C(F)(F)F)nc2c(C(F)(F)F)cccc12 (stereo not drawn) [Compound 3-3] | 
3.62 | 3.64 and 3.79 and 3.49 | OCCN(CCO)CCCNc1cc(C(F)(F)F)nc2c(C(F)(F)F)cccc12 [Compound 3-4] | 
6.33 | 6.47 and 6.62 and 6.08 | COc1cc(NCc2ccccn2)c2ncccc2c1 [Compound 4-1] | 
5.32 | 5.35 and 5.33 and 5.28 | COc1cc(NC2CCN(Cc3ccccc3)CC2)c2ncccc2c1 [Compound 4-2] | 
4.99 | 5.04 and 5.11 and 4.86 | CCC(CC)(CCC#N)CNc1cc(OC)cc2cccnc12 [Compound 4-3] | 
4.64 | 4.73 and 4.66 and 4.54 | CCN(CC)CCC(C)Nc1cc(OC)cc2cccnc12 (stereo not drawn) [Compound 4-5] | 
5.80 | 5.66 and 6.05 and 5.78 | CCN1CCC(Nc2cc(OC)cc3cccnc23)CC1 [Compound 4-8] | 
4.73 | 4.94 and 4.56 and 4.79 | CCC(CC)(CCCN)CNc1cc(OC)cc2cccnc12 [Compound 4-9] | 
3.72 | 3.88 and 3.74 and 3.59 | O=[N+]([O-])c1ccc(NCCNc2cc(C(F)(F)F)nc3cc(C(F)(F)F)ccc23)nc1 [Compound 5, N-(2-(5-nitropyridin-2-ylamino)ethyl)-2,7-bis(trifluoromethyl)quinolin-4-amine] | 
4.36 | 4.31 and 4.40 and 4.39 | Clc1ccc2cc(-c3ccccc3)cnc2c1 [Compound 7, 7-chloro-3-phenylquinoline] | 
5.31 | 5.38 and 5.33 and 5.24 | COc1ccc2c(ccc[n+]2[O-])c1 [Compound 9, 6-methoxyquinoline N-oxide] | 
 |  | CCN(CC)CCCC(C)Nc1ccnc2cc(Cl)ccc12 (stereo not drawn) [chloroquine, reference compound] | pIC50 (recombinant QR2; read-out: QR2 IC50): 5.30 to 6.00; pIC50 (recombinant QR2; [5]): 5.95; pIC50 (recombinant QR2; [6]): 5.38; pIC50 (recombinant QR2; [7]): 5.40 and 5.38 and 5.37; ED90 (P. yoelii ssp. NS; P. yoelii ssp. NS, sc, once daily D0 to D+3, mice): 19.0; ED50 (P. yoelii ssp. NS; sc): 5 mg/kg
 |  | COc1cc(NC(C)CCCN)c2ncccc2c1 (stereo not drawn) [primaquine, reference compound] | IC50 (recombinant QR2; IC50 (μM), individual determinations, assay range given): 14.2 µM and 11 µM and 13.2 µM; pIC50 (recombinant QR2; IC50 Average, average of the determinations): 4.89

SMILES | pIC50 (recombinant QR2; [3]) | pIC50 (recombinant QR2; [4]) | further results
CNc1ccnc2cc(Cl)ccc12 [Compound 2-39] | 6.89 | 6.89 and 6.80 and 7.05 | ED50 ([1]; po): 150 mg/kg; ED50 ([1]; sc): 150 mg/kg; activity against the drug-sensitive P. chabaudi AS line ([1]; parenteral and oral, result in words): active both parenterally and orally; ED50 (P. yoelii ssp. NS; po): 220 mg/kg; ED50 (P. yoelii ssp. NS; sc): 400 mg/kg; inhibitory activity against resistant strain of P. yoelii (P. yoelii ssp. NS; chloroquine-resistant P. yoelii ssp. NS, result in words): demonstrated inhibitory activity; ED50 (P. yoelii ssp. MEFA; P. yoelii ssp. MEFA, po, once daily D0 to D+3, mice): 190 mg/kg; ED50 (P. yoelii ssp. MEFA; [8]): 320 mg/kg; inhibitory activity against resistant strain of P. yoelii (P. yoelii ssp. MEFA; mefloquine-resistant P. yoelii ssp. MEFA, result in words): demonstrated inhibitory activity; toxicity ([2]; oral, higher doses): some toxicity was observed at higher doses; overt signs of toxicity ([2]; subcutaneous): No overt signs of toxicity
OC(c1cc(C(F)(F)F)nc2c(C(F)(F)F)cccc12)C1CCCCN1 (stereo not drawn) [mefloquine, reference compound] | 4.48 | 4.55 and 4.46 and 4.44 | ED90 ([1]; P. chabaudi AS, sc (subcutaneous injection), once daily D0 to D+3, mice): 3.0; ED50 ([1]; P. chabaudi AS, sc (subcutaneous injection), once daily D0 to D+3, mice, read-out: ED50): 1.5 mg/kg; ED90 (P. yoelii ssp. MEFA; [8]): 100; ED50 (P. yoelii ssp. MEFA; [8]): 20 mg/kg
